Data set [1] has as its target BoNT/A LC (Clostridium botulinum, UniProt P0DPI0). The format is biochemical.
Data set [2] deals with BoNT/A-mediated cleavage of SNAP-25 in hiPSC-derived neurons. It is filed as cell-based, human. The following applies: for EC50: read-out: EC50, protection of BoNT/A-intoxicated neurons (SNAP-25 cleavage).
Data set [3] relates to BoNT/A. The following applies: mouse.
The conditions of data set [4]: mouse, in vivo, sc, 1 mg/kg.

“And” between values parts separate entries of the source, which are not always exact repeats. Identical values can stand only once.

For orientation: Ki means a measure of affinity in units of concentration, obtained from inhibition or displacement.

Chain of BoNT/A LC (P0DPI0 2-448 limits assumed): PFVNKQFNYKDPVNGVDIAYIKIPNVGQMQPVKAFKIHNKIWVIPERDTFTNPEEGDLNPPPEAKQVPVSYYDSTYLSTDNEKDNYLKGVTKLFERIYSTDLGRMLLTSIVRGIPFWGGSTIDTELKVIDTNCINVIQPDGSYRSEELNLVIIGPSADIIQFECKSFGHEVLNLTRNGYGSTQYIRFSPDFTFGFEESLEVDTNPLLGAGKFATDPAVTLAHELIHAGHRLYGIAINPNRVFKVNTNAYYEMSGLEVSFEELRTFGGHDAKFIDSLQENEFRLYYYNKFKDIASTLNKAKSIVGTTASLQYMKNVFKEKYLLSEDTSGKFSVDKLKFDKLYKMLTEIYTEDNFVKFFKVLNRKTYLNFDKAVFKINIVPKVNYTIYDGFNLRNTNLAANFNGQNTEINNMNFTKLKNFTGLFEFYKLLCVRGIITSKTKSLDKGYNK

Regarding `O=C1O[C@H]([C@@H](O)CO)C([O-])=C1O.[Na+]` [ASC, Sodium ascorbate, reference compound], the “effect on enzyme activity” value in data set [1] is listed as “no effect”.

Take `c1ccc(-c2ccccn2)nc1` [BIPY, 2,2′-bipyridine]: in data set [2], the “result in cell-based BoNT/A assay” value was “promising results”.

Consider `CNC(=S)NN=CC=NNC(=S)NC.[Cu+2]` [Cu(GTSM), copper (II) glyoxal-bis(4-methylthiosemicarbazone)], for which, in data set [2], the “delay between +complex and control curves of SNAP-25 cleavage versus time” value is listed as “less than half hour delay”; the “effect of additives NAC, ASC or BSO on complex inhibition of BoNT/A” value is listed as “no observable effect”; the “effect on SNAP-25 cleavage” value is listed as “able to mitigate SNAP-25 cleavage”; the EC50 is about 1000 nM. In data set [3], the “in vivo efficacy against BoNT/A” value was “efficacy against BoNT/A was established”. Further, in data set [3] (in vivo), the “efficacy after BoNT/A challenge” value was “statistically significant efficacy was not achieved” and the time to death result is reported as “significant increase”. The “time to death post-toxin exposure” value in data set [3] (in vivo, sc) is “marked increase”. The “survival of mice treated with complex only without toxin” value in data set [4] is recorded as “complete survival”.

Consider `COCCN(CCOC)C(=S)[S-].COCCN(CCOC)C(=S)[S-].[Cu+2]` [Cu(MEDTC)2, copper (II) bis(2-methoxyethyl)dithiocarbamate], for which, in data set [2], the “effect on SNAP-25 cleavage” value was “able to mitigate SNAP-25 cleavage” and the EC50 was about 1000 nM. Also, the “in vivo efficacy against BoNT/A” value in data set [3] is reported as “efficacy against BoNT/A was established”. Besides, the time to death result in data set [3] (in vivo) is on record as “significant increase”. Besides, in data set [4], the “survival of mice treated with complex only without toxin” value is given as “complete survival”.

Consider `Oc1c(Cl)cc(Cl)c2cccnc12` [DCOQ, 5,7-dichloroquinolin-8-ol], for which, in data set [2], the “result in cell-based BoNT/A assay” value is “promising results”.

On to CuCl2 [Cu (II)], for which, in data set [1], the Ki is 1560 nM and ~1000 nM; the enzyme activity is listed as under 1%; the inhibition mechanism entry is listed as “noncompetitive inhibition”; the “inhibitory activity in metal salt screen” value is reported as “significant inhibitory activity”. Also, in data set [1], the “reversibility of inhibitory effect on Vmax” value is “reversible”.

For the origin of these results see PMC5612488 (Journal of the American Chemical Society, 2017).
